How the values were obtained:
[1] = system: Trypanosoma cruzi; test: Antitrypanosomal activity against Trypanosoma cruzi trypomastigotes assessed as parasite growth inhibition; assay type: functional, organism-based
[2] = Selectivity index, ratio of CC50 for cytotoxicity against mouse NCTC Fibroblast cells assessed as inhibition of cell growth to EC50 for antitrypanosomal activity against Trypanosoma cruzi trypomastigotes assessed as parasite growth inhibition; assay type: toxicity, cell-based; conditions: read-out: Ratio CC50/EC50
[3] = system: Fibroblast; test: Cytotoxicity against mouse NCTC Fibroblast cells assessed as inhibition of cell growth; assay type: functional
[4] = Trypanosoma cruzi, read-out: EC50

| SMILES | EC50 [1, 4] [µM] | selectivity ratio [2] | CC50 [3] [µM] | EC50 [1] |
| --- | --- | --- | --- | --- |
| CCCCC(CC)COC(=O)c1ccc([N+](=O)[O-])cc1 (centres undefined) | 11.5 | > 17.4 | > 200 |  |
| CCC/C=C/CCCNC(=O)c1ccc(C(C)(C)C)cc1 | 7.7 | > 26 | > 200 |  |
| CCC/C=C/CCCNC(=O)c1ccccc1 | 71.3 | > 2.8 | > 200 |  |
| CCC/C=C/CCCOC(=O)c1ccc(C)cc1 | 11.7 | > 17.1 | > 200 |  |
| CCCCC(CC)COC(=O)c1ccc(C(C)(C)C)cc1 (centres undefined) |  |  | > 200 | Not Active |
| CCCCC(CC)COC(=O)c1ccc(Cl)cc1 (centres undefined) | 15.6 | > 12.8 | > 200 |  |
| CCCCC(CC)CNC(=O)c1ccc(C(C)(C)C)cc1 (centres undefined) |  |  | > 200 | Not Active |
| CCC/C=C/CCCOC(=O)c1ccc([N+](=O)[O-])cc1 | 5.6 | > 35.1 | > 200 |  |
| CCCCC(CC)CNC(=O)c1ccc([N+](=O)[O-])cc1 (centres undefined) | 22 | > 9.1 | > 200 |  |
| CCC/C=C/CCCOC(=O)c1ccc(F)cc1 | 20.8 | > 9.6 | > 200 |  |
| CCCCC(CC)COC(=O)c1ccc(C)cc1 (centres undefined) | 19.7 | > 10.2 | > 200 |  |
| CCC/C=C/CCCNC(=O)c1ccc(F)cc1 | 71.4 | > 2.8 | > 200 |  |
| CCC/C=C/CCCOC(=O)c1ccc(OC)cc1 | 15.6 | > 12.8 | > 200 |  |
| CCC/C=C/CCCNC(=O)c1ccc(OC)cc1 | 25.9 | > 7.7 | > 200 |  |
| CCCCC(CC)CNC(=O)c1ccc(F)cc1 (centres undefined) | 36.6 | 4.3 | 157 |  |
| CCC/C=C/CCCOC(=O)c1ccccc1 | 77.4 | > 2.6 | > 200 |  |
| CCC/C=C/CCCNC(=O)c1ccc(C)cc1 | 37.7 | > 5.3 | > 200 |  |
| CCC/C=C/CCCNC(=O)c1ccc(Cl)cc1 | 28.7 | > 7 | > 200 |  |
| CCCCC(CC)COC(=O)c1ccc(F)cc1 (centres undefined) | 42.4 | > 4.7 | > 200 |  |
| CCCCC/C=C/CCCOC(=O)c1ccc(O)cc1 | 75.3 | > 2.7 | > 200 |  |
| CCCCC(CC)CNC(=O)c1ccc(Cl)cc1 (centres undefined) | 20.7 | > 9.7 | > 200 |  |
| CCC/C=C/CCCOC(=O)c1ccc(C(C)(C)C)cc1 |  |  | > 200 | Not Active |
| CCC/C=C/CCCNC(=O)c1ccc([N+](=O)[O-])cc1 | 24.4 | 6.5 | 158 |  |
| CCC/C=C/CCCOC(=O)c1ccc(Cl)cc1 | 19.8 | > 10.1 | > 200 |  |
| CCCCC(CC)CNC(=O)c1ccc(C)cc1 (centres undefined) | 21.3 | > 9.4 | > 200 |  |
| O=C(Cn1ccnc1[N+](=O)[O-])NCc1ccccc1 [BENZNIDAZOLE] |  | > 16 | > 200 |  |
